One molecule from patent US7718700B2, “Growth factor-binding compounds and methods of use” (Yale University, priority 2004, dated 2010) can be followed below.

Assay [1] concerns VEGF-stimulated Erk1, Erk2, Akt and STAT3 phosphorylation. The assay is described as follows: VEGF-stimulated phosphorylation of Erk1/2, Akt and STAT3 in Flk-1/NIH 3T3 cells. Type of assay: cell-based, mouse. To be noted: GFB204 10 μM. The procedure: (§1) FIGS. 3A and 3B show the effect of GFB204 on growth factor stimulated Erk1, Erk2, Akt, and STAT3 phosphorylation. GFB204 inhibits VEGF and PDGF stimulation of Flk-1 tyrosine phosphorylation and Erk1/Erk2 phosphorylation (FIG. 3A). NIH 3T3 cells or Flk-1/NIH 3T3 cells were treated with increasing concentrations of GFB204 for 5 minutes prior to stimulation with PDGFBB (10 ng/ml) or VEGF (50 ng/ml), respectively, for 10 minutes. The cells were then lysed and processed for SDS-PAGE Western blotting with an antibody specific for phosphotyrosine-Flk-1 or anti-phosphotyrosine for PDGFR tyrosine phosphorylation or phospho-Erk1/2. GFB204 effects on growth factor-stimulated Erk1, Erk2, Akt and STAT3 phosphorylation (FIG. 3B). NIH 3T3, Flk-1/NIH 3T3, IGF-1R/NIH 3T3 or EGFR/NIH 3T3 cells were treated with GFB204 (10 μM) prior to stimulation with PDGF (NIH 3T3) VEGF (Flk-1/NIH 3T3), EGF (EGFR/NIH 3T3), bFGF (NIH 3T3) or IGF-1 (IGF-1R/NIH 3T3). The cells were then harvested and processed for SDS-PAGE Western blotting with antibodies specific for phospho-Erk1/2, phospho-Akt and phospho-STAT3.
(§2) Growth factor-mediated stimulation of phosphorylation of Erk1/2, Akt and STAT3. […]

For the next assay, the system named is VEGFR (Flk-1/KDR). The assay is described as follows: VEGF-stimulated Flk-1 tyrosine phosphorylation in Flk-1/NIH 3T3 cells. Type of assay: cell-based, human. The procedure:
Inhibition of growth factor-dependent receptor tyrosine phosphorylation by GFBs. Starved Flk-1/KDR-overexpressing NIH 3T3 cells (Flk-1/NIH 3T3) or NIH 3T3 cells were pretreated with GFBs for 5 min before stimulation with VEGF (50 ng/ml) or PDGF-BB (10 ng/ml) for 10 min, respectively. The cells were then harvested and lysed, and proteins from the lysates were separated by SDS-PAGE and transferred to nitrocellulose. Membranes then were either immunoblotted with anti-phospho-VEGFR2 antibody (Cell Signaling Technologies, Beverly, Mass.) for activated Flk-1 or anti-phospho-tyrosine antibody (4G10, Upstate Biotechnology, Lake Placid, N.Y.) for activated PDGFR. Phosphotyrosine Flk-1 and PDGFR were quantified using a Bio-Rad Model GS-700 Imaging Densitometer (Bio-Rad Laboratories, Inc, Hercules, Calif.) (Blaskovich, M. A. et al. Nat Biotechnol, 2000, 18:1065-70).

In another assay the target is T1, VEGF (Homo sapiens, UniProt P15692).
T1 sequence (P15692 27-191 isoform P15692-4): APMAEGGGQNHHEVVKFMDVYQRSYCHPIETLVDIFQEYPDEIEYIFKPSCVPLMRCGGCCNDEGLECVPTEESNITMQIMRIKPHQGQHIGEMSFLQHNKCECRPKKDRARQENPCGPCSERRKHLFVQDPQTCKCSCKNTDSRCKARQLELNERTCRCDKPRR
The assay is described as follows: Tryptophan fluorescence titration of VEGF. Type of assay: binding. Particulars: emission at 334 nm. As for the experimental part:
FIGS. 2D and 2E illustrate that GFB-204 binds PDGF and VEGF as indicated by growth factor tryptophan when increased amounts of GFB204 were added to PDGF and VEGF, respectively. The fluorescence was monitored by excitation at 295 nm and 228 nm, respectively, and emission at 334 nm.
Both VEGF and PDGF contain tryptophans that fluoresce at […] when excited at […].

The test system of assay [2] is adult human brain endothelial cells. Description: VEGF-dependent human brain endothelial cell migration (modified Boyden chamber). Format: cell-based. To be noted: VEGF 20 ng/ml, 18 hours, read-out: IC50 VEGF-induced endothelial cell migration. As for the experimental part:
Migration of adult human brain endothelial cells was evaluated using a modified Boyden chamber assay as described in Materials and Methods. Vehicle control (FIG. 5A) or GFB204 (FIG. 5B) was added to 2% FBS-containing medium in the outer chamber, and the number of migrated cells to the VEGF-containing lower chamber was determined after an 18-hour incubation (FIG. 5C).
Human brain endothelial cell migration assay. Migration of adult human brain endothelial cells was evaluated using a modified Boyden chamber assay (BD BioCoat Matrigel Invasion Chamber) (Papadimitriou, E. et al. Biochem Biophys Res Commun, 2001, 282:306-13). The cells were plated at 4×10^4/ml onto an 8 μm pore size membrane coated with a thin layer of Matrigel basement membrane matrix. GFB204 was added to the medium in the outer chamber and the cells were cultured for 18 hours under VEGF-dependent condition in the lower chamber (VEGF 20 ng/ml). Non-invading cells were removed from the upper surface with a cotton swab. Membrane inserts were then fixed with 4% paraformaldehyde and stained with Crystal-Violet dye. The number of cells that migrated to the undersurface of the filters, was quantified by counting the cells migrated in randomly selected microscopic fields (10×). Samples were analyzed for significant differences using a Student's t-test for independent samples.

Assay [3] concerns EGF-stimulated Erk1, Erk2, Akt and STAT3 phosphorylation. Description: EGF-stimulated phosphorylation of Erk1/2, Akt and STAT3 in EGFR/NIH 3T3 cells. Format: cell-based, mouse. Particulars: GFB204 10 μM. The procedure: as §1, §2
Assay [4] concerns PDGF-stimulated Erk1, Erk2, Akt and STAT3 phosphorylation. Description: PDGF-stimulated phosphorylation of Erk1/2, Akt and STAT3 in NIH 3T3 cells. Format: cell-based, mouse. Particulars: GFB204 10 μM. As for the experimental part:
as §1, §2

Entries after “also recorded” stand apart in the source; their conditions may differ. Read-outs that look alike come from different tables or passages of the source.

`CCCCOc1c2cc(C(=O)Nc3cc(C(=O)O)cc(C(=O)OCc4ccccc4)c3)cc1Cc1cc(C(=O)Nc3cc(C(=O)O)cc(C(=O)OCc4ccccc4)c3)cc(c1OCCCC)Cc1cc(C(=O)Nc3cc(C(=O)O)cc(C(=O)OCc4ccccc4)c3)cc(c1OCCCC)Cc1cc(C(=O)Nc3cc(C(=O)O)cc(C(=O)OCc4ccccc4)c3)cc(c1OCCCC)C2` [GFB204]: the “VEGF-stimulation of the phosphorylation of Erk1, Erk2, Akt and STAT3” value in assay [1] was “blocked; also recorded: inhibited”. Further, the IC50 in the assay on VEGFR (Flk-1/KDR) (VEGF 50 ng/ml stimulated Flk-1 tyrosine phosphorylation, read-out: IC50 (μM) VEGFR) is 0.48 ± 0.31 µM; in the assay with VEGFR (Flk-1/KDR) (read-out: IC50 VEGFR tyrosine phosphorylation (VEGF)) it was 0.48 µM; in assay [2], 600 nM. In addition, the “binding to VEGF by tryptophan fluorescence titration” value on VEGF is “binds both PDGF and VEGF”. In addition, in assay [3], the “EGF-stimulation of the phosphorylation of Erk1, Erk2, Akt and STAT3” value is “had little effect and not”. Besides, the “PDGF-stimulation of the phosphorylation of Erk1, Erk2, Akt and STAT3” value in assay [4] is listed as “blocked; also recorded: inhibited”.
